Results as given in patent US12447187B2, “Composition for preventing and treating inflammatory bowel disease including puer tea extract” (priority 2021, dated 2025).

Test system: DSS-induced ulcerative colitis
Experiment: DSS-induced ulcerative colitis model (body weight, colon length, histology, DAI)
Format: in vivo, ICR mice
Conditions: 3% DSS mice
Method: Experimental animals, ICR mice (6 weeks old male) were supplied from Daehan Biolink (Chungcheongbuk-do Province, Korea) and used. After 1 week of adaptation of experimental animals, 7 animals were accommodated in each group. During the experiment, the breeding conditions were 23±2° C. for a temperature, 55±10% for a relative humidity, and 150 to 300 Lux for lighting with a 12-hour cycle (artificial lighting, 8:00 am-8:00 pm). Feed was powdered feed for laboratory animals, and water was provided freely during the experiment period. Acute ulcerative colitis was induced in mice while allowing free intake of water containing 3% (w/v) of DDS for 14 days. During the experiment, each group of experimental animals was observed by checking whether the mice lost weight, urine and feces tests, and bleeding every day. Experimental animals were classified into the following four groups and the experiment was performed (Table 1). Puer tea extract and ASA were orally administered once a day for 14 days from the day of DDS treatment. After the experiment, mice were sacrificed, and the results were measured. Ulcerative colitis is measured by clinical signs such as weight loss, diarrhea with bleeding and mucus, and shortens the length of the colon. […] Weight loss is calculated as the difference between the initial and present weight. Visible rectal bleeding means diarrhea accompanied by bleeding or total rectal bleeding, and the DAI was calculated by the following equation. […] Puer tea extract (100 mg/kg) was orally administered once a day to 7 mice induced with 3% DSS for 14 days, and then the weights of the mice were measured, and the mean of the data in the triplicate experiment was expressed as ±S.D. Puer tea extract (100 mg/kg) was orally administered once a day for 14 days to 7 mice induced with 3% DSS for 14 days, and then the colon was removed, and the colon length was evaluated (A of FIG. 2). […] DAI was calculated as in Examples 1-5), and the mean of the experimental data was expressed as ±SD.

Substance: 5-acetylsalicylic acid [5-ASA]
- colon length (100 mg/kg orally once a day for 14 days, normal group 8.01±0.16, DSS group 5.25±0.12): 6.77±0.33 cm
- thickness of the barrier muscle layer (H&E colon sections) (14 days, vs DSS group): became thinner again
- DAI clinical symptoms (weight loss, diarrhea, rectal bleeding) (once a day for 14 days, vs DSS single treatment): significantly decreased
